Experimental data published in PMC7373766, “In vitro and in vivo Evaluation of in silico Predicted Pneumococcal UDPG:PP Inhibitors” (Frontiers in Microbiology, 2020).

Columns and labels:
[1] = test system: L. monocytogenes; set-up: method as in Kuenemann et al., 2018; details: previous research; ref Kuenemann et al., 2018; cited from earlier work
[2] = Cytotoxicity assay (resazurin); format: cell-based; details: human, MRC-5 cells, maximal tested concentration 64 μM
Description: MRC-5 cells were grown into polystyrene 96-well plates at an initial concentration of 1.5 × 10^5 cells/mL cells per well and incubated at 37°C and 5% CO2. In each well, 190 μL of cell suspension was added together with 10 μL of watery compound dilutions. Cell growth was compared to untreated control wells (100% cell growth) and medium-control wells (0% cell growth). After 3 days of incubation, cell viability was assessed using resazurin as described earlier. […] Tamoxifen was used as a positive control.

[3] = test system: S. pneumoniae polysaccharide capsule / bacterial size; experiment: FITC-dextran exclusion assay (degree of encapsulation); format: cell-based
Description: The degree of encapsulation was determined by measuring the zone of exclusion of FITC-dextran (200 kDa, Sigma-Aldrich), as described previously ([Gates et al., 2004]; [Weinberger et al., 2009]; [Cools et al., 2018]). Briefly, bacteria were grown as described earlier until logarithmic phase with or without 50 μM of compound, centrifuged for 5 min at 5000 g and resuspended in PBS. To 100 μL of bacterial suspension 20 μL FITC-dextran (10 μg/mL in water) was added and 10 μL of this suspension was subsequently used to create wet mounts with cover slips. The slides were viewed on a Zeiss Observer.Z1 microscope with a 100x objective, and fluorescent images were captured with a Zeiss AxioCam MRm camera. The images were converted into grayscale and analyzed using ImageJ software. The area of FITC exclusion was determined. For each fluorescent image, a brightfield image was also recorded in order to count the number of bacteria per chain. For each strain, the mean of 150–300 cells was determined, and at least two images were collected from each of at least two independently prepared slides.

[4] = test system: S. pneumoniae; experiment: Galleria mellonella killing assay; format: in vivo
Description: Larvae were purchased from a local vendor (Anaconda Reptiles, Kontich, Belgium) and stored in wood chips at 15°C before use. Four hours before use, larvae were put at 4°C. A sterile 20 μL Hamilton syringe was used to inject 10 μL aliquots of bacterial suspensions into the hindmost left proleg of Galleria mellonella. Bacteria were grown mid logarithmic phase for 6 h with or without 1, 10, 50 or 200 μM compounds, washed and resuspended in PBS before infection. The control group was injected with 10 μL PBS. A minimum of 10 larvae per group was used. Following the injections, larvae were incubated at 37°C in the dark for several days to allow progression of the pneumococcal infection. Every 24 h, larvae were scored as dead or alive. Larvae were determined dead when no signs of movement could be observed in response to external stimuli. For each strain, at least four independent repeats were carried out.

| Structure (SMILES) | Activity on L. monocytogenes [1] | CC50 at 3 days [2] [µM] | Effect on bacterial size (area of FITC-dextran exclusion) ([3]; strain R6, 50 μM of compound) | Effect on larval survival, dose-response ([4]; strain TIGR4 grown with 1 μM compound) | Effect on larval survival, dose-response ([4]; strain TIGR4 grown with 10 μM compound) | Effect on larval survival, dose-response ([4]; strain TIGR4 grown with 50 μM compound) | Effect on larval survival, dose-response ([4]; strain TIGR4 grown with 200 μM compound) | Effect on bacterial size (area of FITC-dextran exclusion) ([3]; strain M23 galU mutant, 50 μM of compound) |
| --- | --- | --- | --- | --- | --- | --- | --- | --- |
| NCCCOc1cccc(C(=O)NC2CCC(n3cc(F)c(=O)[nH]c3=O)C(O)C2O)c1 (centres unmarked) [BDG 33920985] | active | 43.7 |  |  |  |  |  |  |
| NCCOc1cccc(C(=O)NC2CCCC(n3ccc(=O)[nH]c3=O)C2O)c1 (centres unmarked) [BDH 33910157] | active | > 64 | no effect | inactive | inactive | significantly improved larval survival | significantly improved larval survival |  |
| NCCCOc1cccc(C(=O)NC2CCCC(n3cnc4c(N)ncnc43)C2O)c1 (centres unmarked) [BDH 33910188] |  | > 64 |  |  |  |  |  | no effect |
